This is an account of results in patent publication US6423834B1, “KDO aldolase and condensation reactions employed therewith” (The Scripps Research Institute, priority 1992, dated 2002).

In data set [1] the test system is KDO aldolase (EC 4.1.2.23). The data set is described as follows: KDO aldolase-catalyzed aldol condensation of sugars with pyruvate (kinetic and relative rate measurements via remaining pyruvate). Particulars: for rel. V (relative rate of aldol condensation): pyruvate 10 mM, sugar 0.5 M, 0.1 M phosphate pH 7.5, 37° C., relative to D-arabinose. Format: biochemical, Aureobacterium barkerei strain KDO-37-2. The source says:
(§1) Partially purified KDO aldolase simply obtained by ammonium sulfate precipitation (8.0 U/mL; 0.19 U/mg for degradation of KDO) was used in substrate-specificity studies reported herein. The KDO aldolase employed for the kinetic analysis reported herein, was further purified via DEAE sepharose and phenyl sepharose column chromatography to a specific activity of 5.7 U/mg. […] The enzymatic reaction favors the cleavage of KDO, with the equilibrium constant Keq=[pyruvate][arabinose]/KDO=9×10^−2M.
The rates for aldolase-catalyzed reactions were obtained by measuring the amount of remaining pyruvate, according the method of Kim (supra). The reactions were carried out in 0.1 M phosphate buffer (pH 7.5) containing: varied concentrations of pyruvate, 2.0, 3.33, 5, and 10 mM; varied concentrations of D-arabinose, 0.2, 0.25, 0.33, and 0.50 M in 0.5 mL of solution. Each solution was incubated at 37° C. Periodically, a small aliquot (25-100 μL) was withdrawn and mixed with an assay solution (1.4 mL) containing 0.1 M phosphate (pH 7.5) buffer, 0.3 mM NADH, and 20-30 U of L-lactate dehydrogenase. The decrease in absorbance at 340 nm was measured and converted into the amount of the unreacted pyruvate using 6220 M^−1cm^−1 for the molecular absorbance of NADH. The kinetic parameters were obtained from the Lineweaver-Burk plots.
For the relative rate measurements, the concentration of pyruvate (fluoropyruvate) and sugar were fixed at 10 mM and 0.5 M, respectively. Other conditions were the same as above.

For data set [2], the system named is KDO aldolase (EC 4.1.2.23). Kind of data set: KDO aldolase degradation (cleavage) of KDO. In kind it is biochemical, Aureobacterium barkerei strain KDO-37-2. Particulars: read-out: Km in the course of degradation. The method, then:
It is disclosed herein that the Gram-positive bacterium Aureobacterium barkerei strain KDO-37-2 can be induced to contain high levels of KDO aldolase. The aldolase activity from this source was assayed according to Aminoff's method (Biochem. J. 1961, 81, 384). Two liters of culture contained 10.2 U based on the degradation of KDO. This KDO activity is 4 times and 8 times higher than the corresponding KDO activity from Escherichia coli K-12 and Aerobacter cloacae, respectively, as reported by Gharambor (supra).
as §1
With one slight modification, the incubation was carried out according to the procedure reported by Gharambor (supra). […] The enzyme activity was determined to be 1.45 U/mL for the degradation of KDO according to the method of Aminoff (Biochem. J. 1961, 81, 384). […]

Data set [3] in a line: Proportion of β-isomer by comparing 1H NMR spectra. In kind it is physicochemical. On the procedure: Finally, the aldol reaction with an unnatural sugar containing a fluorine atom was conducted to give 18 (19% of 19). By comparing the ^1H NMR spectra, the proportion of the β-isomer (10.71) of 18 was ca. 1.5 times higher than that of KDO (6.9%), probably due to the absence of furanose and 1<<5 lactone forms. […] (Kohlbrenner, W. E. and Fesik, S. W., J. Biol. Chem. 1985, 260, 14695.) We therefore synthesized 18 in a larger scale by combining the use of KDO aldolase and pyruvate decarboxylase, which made the workup procedure much easier.

Data set [4] has as its system KDO aldolase. The settings on record: enzyme from Aerobacter cloacae; cited from earlier work.
For data set [5], the system named is KDO aldolase. The settings on record: enzyme from E. coli; cited from earlier work.

Read-outs that look alike come from different tables or passages of the source.

In general, Km refers to the substrate concentration at which the rate is half of its maximum.

With `O=C[C@@H](O)[C@H](O)[C@H](O)CO` [D-arabinose, reference compound], the Vmax in data set [1] (condensation of D-arabinose with pyruvate, enzyme purified to 5.7 U/mg) stood at 0.73 U/mg.

Take `O=C(O)C(=O)CF` [fluoropyruvate]: the “accepted as substrate for the condensation” value in data set [1] was “neither fluoropyruvate nor ketohexose was accepted”.

Consider `O=C(O)C(=O)C[C@@H](O)[C@@H](O)[C@H](O)[C@H](O)CO` [KDO, 3-deoxy-D-manno-2-octulosonic acid], for which the Km in data set [2] stood at 6 mM. Moreover, in data set [3], the “proportion of the β-isomer” value was found to be 6.9%.

In the case of `C[C@H](O)[C@@H](O)[C@@H](O)[C@H](O)C=O` [L-fucose], the “rel. V (relative rate of aldol condensation)” value in data set [1] was “rate not detectable”.

As to `O=CC[C@H](O)[C@H](O)CO` [2-deoxy-D-ribose], the “rel. V (relative rate of aldol condensation)” value in data set [1] is on record as 71%.

For `O=C[C@H](O)[C@H](O)[C@H](O)CO` [D-ribose], the “rel. V” value in the data set with KDO aldolase [4] and in the data set on KDO aldolase [5] was less than 5% throughout. Also, the “rel. V (relative rate of aldol condensation)” value in data set [1] was determined as 72%.

For the compound `O=C[C@@H](O)[C@H](O)[C@H](O)[C@H](O)CO` [D-altrose], the “rel. V (relative rate of aldol condensation)” value in data set [1] was 25%.
